Test results reported in patent publication US8785470B2, “Heterocyclic compounds and uses thereof” (Infinity Pharmaceuticals, Inc., priority 2011, dated 2014).
Read-outs that look alike come from different tables or passages of the source.

What was measured:
[1] = test system: phospho-AKT in RAW 264.7 cells (PI3Kγ); assay: PI3Kγ selective assay, phospho-AKT in RAW 264.7 cells; format: cell-based; details: Mus musculus, RAW264.7, stimulated with C5a, read-out: IC50 for phospho-AKT, RAW 264.7 cell model
From the text: A compound's ability in selectively inhibiting PI3Kγ can be assessed using RAW264.7 macrophages. Briefly, serum-starved PAW264.7 cells are stimulated with a known GPCR agonist C5a. (See, e.g., Camps et al., Nature Medicine (2005) 11(9): 936-943). Cells can be treated with test compounds prior to, simultaneously with, or subsequent to the stimulation by C5a. RAW 264.7 cells respond to the complement component fragment C5a through activation of the C5a receptor, and the C5a receptor activates macrophages and induces cell migration. Test compounds' ability to inhibit C5a-mediated AKT phosphorylation is indicative of selective inhibition of PI3Kγ. Thus, by monitoring the reduction of phospho-AKT in stimulated RAW 264.7 cells (using for example, phospho-AKT antibodies), a compound's potential efficacy in selectively inhibiting PI3Kγ can be assessed.

PI3Kα = target: T1, PI3Kα (Homo sapiens, UniProt P42336); assay: PI3-Kinase HTRF assay, PI3Kα; format: biochemical; details: bins Greater than 10 μM and Greater than 1 μM to 10 μM; 10 μM ATP, PIP2 at 10 μM; read-out: IC50 P13Kα
T1 construct: purchased Millipore Corporation 14-602-K
Procedure, shortened: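 Purified recombinant human PI3Kα, β, γ or δ (0.25-0.3 μg/ml) preincubated 15 min at room temperature with compound (2% DMSO) and 10 μM PIP2, then reacted 1 h with 10 μM ATP. PIP3 product detected by competitive HTRF (GST-PH domain/biotin-PIP3); IC50 from 12-point curves, 20 μM to 0.1 nM, by nonlinear regression.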

[2] = test system: phospho-AKT in RAJI cells (PI3Kδ); assay: PI3Kδ selective assay, phospho-AKT in RAJI cells; format: cell-based; details: RAJI cells stimulated with anti-human IgM; read-out: IC50 for phospho-AKT, RAJI cell model
From the text: A compound's ability in selectively inhibiting PI3Kδ can be assessed using RAJI cells, i.e., B lymphocyte cells derived from lymphoma patients. Briefly, serum-starved RAJI cells are stimulated with anti-human IgM, thereby causing signaling through the B-cell receptors, as described in, for example, He et al., Leukemia Research (2009) 33: 798-802. B-cell receptor signaling is important for the activation, differentiation, and survival of B cells and certain B-cell derived cancers. Reduction of phospho-AKT is indicative of compounds that may inhibit B-cell proliferation and function in certain diseases. By monitoring the reduction of phospho-AKT in stimulated RAJI cells (using for example, phospho-AKT antibodies), a compound's potential efficacy in selectively inhibiting PI3Kδ can be assessed.

PI3Kβ = target: T2, PI3Kβ (Homo sapiens, UniProt P42338); assay: PI3-Kinase HTRF assay, PI3Kβ; format: biochemical; details: bins Greater than 10 μM and Greater than 1 μM to 10 μM; 10 μM ATP, PIP2 at 10 μM
T2 construct: purchased Millipore Corporation 14-603-K
From the text: A PI3-Kinase HTRF® assay kit (cat No. 33-016) purchased from Millipore Corporation was used to screen compounds provided herein. This assay used specific, high affinity binding of the GRPI pleckstrin homology (PH) domain to PIP3, the product of a Class 1A or 1B PI3 Kinase acting on its physiological substrate PIP2. During the detection phase of the assay, a complex was generated between the GST-tagged PH domain and biotinylated short chain PIP3. The biotinylated PIP3 and the GST-tagged PH domain recruited fluorophores (Streptavidin-Allophycocyanin and Europium-labeled anti-GST respectively) to form the fluorescence resonance energy transfer (FRET) architecture, generating a stable time-resolved FRET signal. The FRET complex was disrupted in a competitive manner by non-biotinylated PIP3, a product formed in the PI3 Kinase assay.
PI3 Kinase α, β, γ and δ activity was assayed using the PI3 Kinase HTRF® assay kit (catalogue No. 33-016) purchased from Millipore Corporation. Purified recombinant PI3Kα (catalogue No. 14-602-K), PI3Kβ (catalogue No. 14-603-K), PI3Kγ (catalogue No. 14-558-K) and PI3Kδ (catalogue No. 14-604-K) were obtained from Millipore Corporation. Purified recombinant PI3K enzyme was used to catalyze the phosphorylation of phosphatidylinositol 4,5-bisphosphate (PIP2 at 10 μM) to phosphatidylinositol 3,4,5-trisphosphate (PIP3) in the presence of 10 μM ATP. The assay was carried out in 384-well format and detected using a Perkin Elmer EnVision Xcite Multilabel Reader. Emission ratios were converted into percent inhibitions and imported into GraphPad Prism software. The concentration necessary to achieve inhibition of enzyme activity by 50% (IC50) was calculated using concentrations ranging from 20 μM to 0.1 nM (12-point curve). IC50 values were determined using a nonlinear regression model available in GraphPad Prism 5. […]

Balb/c splenic B cells = assay: B cell activation and proliferation assay; format: cell-based; details: Mus musculus, column bins 1 μM to 100 nM (given as 100-1000) and Less than 100 nM, read-out: B cell proliferation EC50
Procedure, shortened: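 Balb/c splenic B cells were isolated by Ficoll gradient and magnetic separation, plated at 50.000 cells/well in RPMI/10% FBS, and pre-incubated with compound for 30 min at 37° C (0.2% DMSO). Cells were stimulated for 72 h with a cocktail of 10 μg/ml LPS or 5 μg/ml anti-mouse IgM F(ab′)2 plus 2 ng/ml IL4. Alamar Blue fluorescence (560Ex/590Em) after 5 h gave IC50 or EC50.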

[3] = ranges less than 100 nM and between 100 nM and 1 μM (given as 100-1000)

T2 sequence (P42338 whole entry): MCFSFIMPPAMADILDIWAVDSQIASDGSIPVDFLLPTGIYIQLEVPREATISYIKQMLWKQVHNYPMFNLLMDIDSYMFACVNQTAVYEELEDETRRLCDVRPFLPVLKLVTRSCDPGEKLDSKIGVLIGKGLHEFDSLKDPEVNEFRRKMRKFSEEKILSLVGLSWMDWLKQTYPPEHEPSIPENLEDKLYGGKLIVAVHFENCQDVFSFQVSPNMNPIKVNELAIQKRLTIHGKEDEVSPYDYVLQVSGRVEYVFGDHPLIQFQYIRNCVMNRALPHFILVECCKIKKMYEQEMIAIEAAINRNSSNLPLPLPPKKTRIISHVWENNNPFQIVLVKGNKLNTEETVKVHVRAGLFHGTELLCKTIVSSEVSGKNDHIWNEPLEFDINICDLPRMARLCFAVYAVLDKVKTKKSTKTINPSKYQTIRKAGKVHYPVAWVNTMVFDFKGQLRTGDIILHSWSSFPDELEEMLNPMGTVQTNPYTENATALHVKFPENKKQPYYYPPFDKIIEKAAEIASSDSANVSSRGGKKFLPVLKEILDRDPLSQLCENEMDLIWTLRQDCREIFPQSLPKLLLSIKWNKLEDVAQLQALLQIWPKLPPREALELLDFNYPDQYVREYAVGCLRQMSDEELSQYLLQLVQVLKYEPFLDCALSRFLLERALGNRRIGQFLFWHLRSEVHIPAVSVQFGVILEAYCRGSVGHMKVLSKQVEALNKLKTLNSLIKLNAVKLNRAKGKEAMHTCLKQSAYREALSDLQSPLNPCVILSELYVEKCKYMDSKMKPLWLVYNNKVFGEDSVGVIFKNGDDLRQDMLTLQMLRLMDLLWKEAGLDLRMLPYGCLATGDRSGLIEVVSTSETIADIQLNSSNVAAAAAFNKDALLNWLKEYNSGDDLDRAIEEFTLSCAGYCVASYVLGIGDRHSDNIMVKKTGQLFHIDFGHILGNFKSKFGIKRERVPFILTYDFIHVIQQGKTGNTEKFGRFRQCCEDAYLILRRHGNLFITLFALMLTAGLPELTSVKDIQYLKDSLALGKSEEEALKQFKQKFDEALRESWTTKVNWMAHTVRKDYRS
T2 sequence (P27986 whole entry partner): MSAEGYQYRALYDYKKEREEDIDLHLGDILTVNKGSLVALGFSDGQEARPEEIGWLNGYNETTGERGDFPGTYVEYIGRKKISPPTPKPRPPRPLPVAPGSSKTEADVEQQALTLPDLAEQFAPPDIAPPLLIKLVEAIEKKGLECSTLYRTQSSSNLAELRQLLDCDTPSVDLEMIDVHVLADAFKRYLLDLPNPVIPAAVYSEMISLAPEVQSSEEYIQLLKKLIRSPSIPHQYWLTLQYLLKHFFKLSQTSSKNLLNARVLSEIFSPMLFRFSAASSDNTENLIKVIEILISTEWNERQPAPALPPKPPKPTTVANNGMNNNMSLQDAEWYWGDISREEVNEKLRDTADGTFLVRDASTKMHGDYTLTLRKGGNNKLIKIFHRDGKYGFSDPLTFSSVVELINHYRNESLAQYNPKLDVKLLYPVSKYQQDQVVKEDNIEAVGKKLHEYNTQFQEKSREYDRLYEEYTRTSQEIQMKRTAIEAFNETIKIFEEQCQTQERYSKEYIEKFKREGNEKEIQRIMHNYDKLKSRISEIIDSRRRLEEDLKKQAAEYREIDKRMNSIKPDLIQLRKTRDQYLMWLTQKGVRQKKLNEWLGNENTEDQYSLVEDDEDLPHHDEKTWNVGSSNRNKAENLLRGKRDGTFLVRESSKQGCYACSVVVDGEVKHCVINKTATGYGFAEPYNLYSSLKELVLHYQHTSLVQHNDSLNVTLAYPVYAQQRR
T1 sequence (P42336 whole entry): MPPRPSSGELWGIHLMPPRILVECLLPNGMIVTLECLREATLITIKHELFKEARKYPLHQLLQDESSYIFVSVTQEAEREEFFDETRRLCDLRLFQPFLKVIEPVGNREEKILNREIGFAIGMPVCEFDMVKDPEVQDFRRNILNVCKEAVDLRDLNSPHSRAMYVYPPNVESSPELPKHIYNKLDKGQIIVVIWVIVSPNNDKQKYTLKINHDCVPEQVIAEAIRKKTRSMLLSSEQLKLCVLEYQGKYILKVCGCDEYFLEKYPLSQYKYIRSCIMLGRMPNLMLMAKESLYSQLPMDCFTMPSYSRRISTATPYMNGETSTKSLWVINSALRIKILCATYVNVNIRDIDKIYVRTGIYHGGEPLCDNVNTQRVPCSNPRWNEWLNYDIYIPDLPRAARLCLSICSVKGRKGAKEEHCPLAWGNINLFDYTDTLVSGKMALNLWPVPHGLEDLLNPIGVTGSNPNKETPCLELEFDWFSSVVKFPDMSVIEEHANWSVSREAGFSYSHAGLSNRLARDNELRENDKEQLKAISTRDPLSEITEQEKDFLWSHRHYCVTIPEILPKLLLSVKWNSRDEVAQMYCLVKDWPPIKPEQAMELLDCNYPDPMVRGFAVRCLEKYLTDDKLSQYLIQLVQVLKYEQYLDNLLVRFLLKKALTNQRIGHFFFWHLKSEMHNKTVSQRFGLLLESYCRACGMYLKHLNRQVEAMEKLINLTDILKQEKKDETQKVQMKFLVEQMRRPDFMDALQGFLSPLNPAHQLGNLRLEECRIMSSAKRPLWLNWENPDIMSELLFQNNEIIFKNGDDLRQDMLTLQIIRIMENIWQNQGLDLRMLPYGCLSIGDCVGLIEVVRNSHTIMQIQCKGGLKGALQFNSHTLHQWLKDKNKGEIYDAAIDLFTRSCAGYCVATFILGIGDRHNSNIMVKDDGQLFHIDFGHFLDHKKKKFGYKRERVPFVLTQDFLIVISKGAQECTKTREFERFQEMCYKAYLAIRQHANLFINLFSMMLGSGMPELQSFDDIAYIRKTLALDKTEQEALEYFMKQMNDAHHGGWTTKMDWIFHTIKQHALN
T1 sequence (P27986 whole entry partner): as the sequence (P27986 whole entry partner) above

Structure (SMILES) | IC50 [1, 3] [nM] | IC50 (PI3Kα) [nM] | IC50 [2] [nM] | IC50 (PI3Kβ) [nM] | EC50 (Balb/c splenic B cells) [nM] | IC50 ([1]; range between 1 μM and 10 μM) [nM]
C[C@H](Nc1nc(N)ncc1C#N)c1cc2cccc(-c3cccc(NS(=O)(=O)N(C)C)c3)c2c(=O)n1-c1ccccc1 [Compound 127] | < 100 | 1000 to 10000 | – | – | – | –
C[C@H](Nc1nc(N)ncc1-c1cccc(S(=O)(=O)N2CCCCC2)c1)c1cc2cccc(Cl)c2c(=O)n1-c1ccccc1 [Compound 157] | < 100 | – | < 100 | – | – | –
C[C@H](Nc1nc(N)ncc1C#N)c1cc2cccc(-c3c[nH]nn3)c2c(=O)n1-c1ccccc1 [Compound 196] | – | 1000 to 10000 | – | 1000 to 10000 | < 100 | –
C[C@H](Nc1nc(N)ncc1C#N)c1cc2cccc(C#CCCC(=O)N3CCCC3)c2c(=O)n1-c1ccccc1 [Compound 207] | – | 1000 to 10000 | – | 1000 to 10000 | < 100 | –
C[C@H](Nc1nc(N)ncc1-c1nccs1)c1cc2cccc(Cl)c2c(=O)n1-c1ccccc1 [Compound 224] | – | 1000 to 10000 | – | 1000 to 10000 | < 100 | –
CCn1cc(-c2cccc3cc([C@H](C)Nc4nc(N)ncc4C#N)n(-c4ccccc4)c(=O)c23)ccc1=O [Compound 230] | – | 1000 to 10000 | – | 1000 to 10000 | < 100 | –
C[C@H](Nc1nc(N)ncc1C#N)c1cc2cccc(-c3ccc(=O)n(CC4CC4)c3)c2c(=O)n1-c1ccccc1 [Compound 232] | – | 1000 to 10000 | – | 1000 to 10000 | < 100 | –
CC(C)n1cc(-c2cccc3cc([C@H](C)Nc4nc(N)ncc4C#N)n(-c4ccccc4)c(=O)c23)ccc1=O [Compound 234] | – | 1000 to 10000 | – | 1000 to 10000 | < 100 | –
COc1cc(-c2cccc3cc(CNc4nc(N)ncc4C#N)n(-c4ccccc4)c(=O)c23)ccn1 [Compound 242] | 100 to 1000 | – | < 100 | – | – | –
C[C@H](Nc1nc(N)ncc1C#N)c1cc2cccc(Cl)c2c(=O)n1-c1cc(F)cc(F)c1 [Compound 273] | 100 to 1000 | – | < 100 | – | – | –
C[C@H](Nc1nc(N)ncc1C#N)c1cc2cccc(Cl)c2c(=O)n1C [Compound 276] | < 100 | – | – | – | – | –
C[C@H](Nc1nc(N)ncc1C#N)c1cc2cccc(Cl)c2c(=O)n1-c1cccc(C#N)c1 [Compound 285] | < 100 | 1000 to 10000 | < 100 | – | – | –
C[C@H](Nc1nc(N)ncc1C#N)c1cc2cccc(Cl)c2c(=O)n1C1CCCCC1 [Compound 300] | – | 1000 to 10000 | – | 1000 to 10000 | < 100 | –
CC(C)OC(=O)c1cccc(-n2c([C@H](C)Nc3nc(N)ncc3C#N)cc3cccc(Cl)c3c2=O)c1 [Compound 312] | 100 to 1000 | – | < 100 | – | – | –
COc1ncc(-c2cccc3cc([C@H](C)Nc4nc(N)ncc4C#N)n(C(C)C)c(=O)c23)cn1 [Compound 327] | 100 to 1000 | 1000 to 10000 | < 100 | – | – | –
C[C@H](Nc1ncnc(N)c1C#N)c1cc2cccc(Cl)c2c(=O)n1-c1ccon1 [Compound 335] | 100 to 1000 | – | < 100 | – | – | –
Cc1ncc(-c2cccc3cc([C@H](C)Nc4ncnc(N)c4C#N)n(-c4ccon4)c(=O)c23)cn1 [Compound 336] | – | – | < 100 | – | – | 1000 to 10000

Structure (SMILES) | IC50 [1, 3] [nM] | IC50 (PI3Kα) [nM] | IC50 [2] [nM] | IC50 (PI3Kβ) [nM] | EC50 (Balb/c splenic B cells) [nM] | IC50 ([1]; range between 1 μM and 10 μM) [nM]
COc1ncc(-c2cccc3cc([C@H](C)Nc4ncnc(N)c4C#N)n(-c4ccccc4)c(=O)c23)cn1 [Compound 356] | 100 to 1000 | – | < 100 | – | – | –
C[C@H](Nc1nc(N)ncc1-c1cn[nH]c1)c1cc2cccc(Cl)c2c(=O)n1-c1ccccc1 [Compound 378] | 100 to 1000 | – | < 100 | – | – | –
C[C@H](Nc1nc(N)ncc1-c1ccoc1)c1cc2cccc(Cl)c2c(=O)n1-c1ccccc1 [Compound 379] | < 100 | – | < 100 | – | – | –
COc1ccc(-c2cnc(N)nc2N[C@@H](C)c2cc3cccc(Cl)c3c(=O)n2-c2ccccc2)cn1 [Compound 383] | < 100 | 1000 to 10000 | < 100 | – | – | –
C[C@H](Nc1nc(N)ncc1-c1cncs1)c1cc2cccc(-c3ccc(=O)n(C)c3)c2c(=O)n1-c1ccccc1 [Compound 387] | 100 to 1000 | – | < 100 | – | – | –
C[C@H](Nc1nc(N)ncc1-c1cscn1)c1cc2cccc(-c3ccc(=O)n(C)c3)c2c(=O)n1-c1ccccc1 [Compound 393] | 100 to 1000 | – | < 100 | – | – | –
CC(=O)c1cnc(N)nc1N[C@@H](C)c1cc2cccc(Cl)c2c(=O)n1-c1ccccc1 [Compound 394] | < 100 | – | < 100 | – | – | –
C[C@H](Nc1nc(N)ncc1-c1cccc(NS(=O)(=O)N(C)C)c1)c1cc2cccc(Cl)c2c(=O)n1-c1ccccc1 [Compound 410] | < 100 | – | < 100 | – | – | –
C[C@H](Nc1nc(N)ncc1-c1cccc(S(=O)(=O)N(C)C)c1)c1cc2cccc(Cl)c2c(=O)n1-c1ccccc1 [Compound 413] | < 100 | – | < 100 | – | – | –
C[C@H](Nc1nc(N)ncc1-c1cccc(S(N)(=O)=O)c1)c1cc2cccc(Cl)c2c(=O)n1-c1ccccc1 [Compound 414] | < 100 | 1000 to 10000 | < 100 | – | – | –
C=CS(=O)(=O)Nc1cccc(-c2cnc(N)nc2N[C@@H](C)c2cc3cccc(Cl)c3c(=O)n2-c2ccccc2)c1 [Compound 415] | < 100 | – | < 100 | – | – | –
CCS(=O)(=O)c1cccc(-c2cnc(N)nc2N[C@@H](C)c2cc3cccc(Cl)c3c(=O)n2-c2ccccc2)c1 [Compound 416] | < 100 | 1000 to 10000 | < 100 | – | – | –
CNS(=O)(=O)c1cccc(-c2cnc(N)nc2N[C@@H](C)c2cc3cccc(Cl)c3c(=O)n2-c2ccccc2)c1 [Compound 418] | < 100 | 1000 to 10000 | < 100 | – | – | –
C[C@H](Nc1nc(N)ncc1-c1cccc(S(=O)(=O)N2CCCC2)c1)c1cc2cccc(Cl)c2c(=O)n1-c1ccccc1 [Compound 419] | < 100 | – | < 100 | – | – | –
C[C@H](Nc1ncncc1-c1cccc(S(=O)(=O)N(C)C)c1)c1cc2cccc(Cl)c2c(=O)n1-c1ccccc1 [Compound 422] | < 100 | 1000 to 10000 | < 100 | – | – | –
CC(C)C(=O)c1cnc(N)nc1N[C@@H](C)c1cc2cccc(Cl)c2c(=O)n1-c1ccccc1 [Compound 424] | 100 to 1000 | 1000 to 10000 | < 100 | – | – | –
C[C@H](Nc1nc(N)ncc1C#N)c1cc2cccc(-c3ccnc(NS(C)(=O)=O)c3)c2c(=O)n1-c1ccccc1 [Compound 443] | – | 1000 to 10000 | – | 1000 to 10000 | < 100 | –
